Test [1] deals with T1, human RORgt nuclear receptor (RORgT ligand binding domain protein) (Homo sapiens, UniProt P51449).
T1 construct: purchased Proteros Biostructures GmbH
T1 sequence (P51449 with tags, fused parts or gaps): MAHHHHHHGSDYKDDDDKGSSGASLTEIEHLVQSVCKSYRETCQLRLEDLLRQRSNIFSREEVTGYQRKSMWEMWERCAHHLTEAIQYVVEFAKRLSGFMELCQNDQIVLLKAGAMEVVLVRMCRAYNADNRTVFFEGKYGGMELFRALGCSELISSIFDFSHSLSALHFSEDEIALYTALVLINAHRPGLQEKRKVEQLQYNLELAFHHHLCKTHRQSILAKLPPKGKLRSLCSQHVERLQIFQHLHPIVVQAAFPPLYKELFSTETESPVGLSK
Nature of the test: ROR-gamma binding assay (Scintillation Proximity Assay, displacement of [3H]-25-hydroxycholesterol). As to conditions: EC50, SPA, 15 nM [3H]-25-Hydroxycholesterol, RORgT LBD 12 nM. An outline of the steps:
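SPA competition of compound against 15 nM [3H]-25-hydroxycholesterol for His/FLAG-tagged human RORγt LBD (12 nM) on His-tag PVT beads, in 50 mM HEPES pH 7.4, 150 mM NaCl, 5 mM MgCl2, 0.1% BSA, 0.5% DMSO. 30 min preincubation, then ≥4 h at room temperature in darkness; EC50 by four-parameter fit.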
In general terms: In a scintillation proximity assay essentially only radioactivity close to the scintillant gives light.

Test [2] has as its system IL-17A levels in human peripheral blood. Kind of test: tissue or blood. In kind it is cell-based. As to conditions: 72 h, read-out: Human Whole blood IL-17A (nM).
In test [3] the test system is IL-17A in Human peripheral mononuclear cells. Kind of test: Human PBMC IL-17A assay. The format is cell-based. As to conditions: 72 h, EC50, antiCD3/antiCD28-coated beads, 3 days, alpha-LISA. In short, it runs like this:
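Cryopreserved human PBMC (130,000/well) stimulated with anti-CD3/anti-CD28-coated beads (1 cell per bead) in RPMI-1640 with 10% bovine calf serum, compounds at 0.1% DMSO, for 3 days. Supernatant IL-17A measured by AlphaLISA, viability by PrestoBlue; EC50 from 4-parameter non-linear regression.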

For `COCc1nnc(Nc2cc(Cl)cc(CN3CCN(C(=O)C4CCC4)[C@@H](C)C3)c2C)o1` [Example 12, [(2S)-4-[[5-chloro-3-[[5-(methoxymethyl)-1,3,4-oxadiazol-2-yl]amino]-2-methyl-phenyl]methyl]-2-methyl-piperazin-1-yl]-cyclobutyl-methanone], the EC50 in test [1] is 40.4 nM; in test [2] it was 302 nM; in test [3] it was 128 nM.
Taken in the same sequence, the figures for `Cc1cc(CN2CCN(C(=O)OC(C)C)[C@@H](C)C2)c(C)c(Nc2nnc([C@H]3NCC[C@H]3O)o2)c1` [Example 77, isopropyl (2S)-4-[[3-[[5-[(2S,3R)-3-hydroxypyrrolidin-2-yl]-1,3,4-oxadiazol-2-yl]amino]-2,5-dimethyl-phenyl]methyl]-2-methyl-piperazine-1-carboxylate] were 61.2 nM, 368 nM and 180 nM.
In the case of `Cc1c(CN2CCN(C(=O)OC(C)(C)C)[C@@H](C)C2)cc(Cl)cc1Nc1ncc(CO)o1` [Example 74, tert-butyl (2S)-4-[[5-chloro-3-[[5-(hydroxymethyl)oxazol-2-yl]amino]-2-methyl-phenyl]methyl]-2-methyl-piperazine-1-carboxylate], the EC50 in test [1] was 71.8 nM; in test [2], 946 nM; in test [3], 408 nM.
For `Cc1c(CN2CCN(C(=O)c3ccccc3)[C@@H](C)C2)cc(Cl)cc1Nc1nnc(C2(O)CC2)o1` [Example 6, [(2S)-4-[[5-chloro-3-[[5-(1-hydroxycyclopropyl)-1,3,4-oxadiazol-2-yl]amino]-2-methyl-phenyl]methyl]-2-methyl-piperazin-1-yl]-phenyl-methanone], in that order: 31.7 nM, 504 nM and 234 nM.
For `Cc1cc(CN2CCN(C(=O)OC(C)C)[C@@H](C)C2)c(C)c(Nc2nnc(C[C@@H](O)C(F)(F)F)o2)c1` [Example 57, isopropyl (2S)-4-[[2,5-dimethyl-3-[[5-[(2R)-3,3,3-trifluoro-2-hydroxy-propyl]-1,3,4-oxadiazol-2-yl]amino]phenyl]methyl]-2-methyl-piperazine-1-carboxylate], in that order: 23.8 nM, 96.7 nM and 46.5 nM.
Taken in the same sequence, the figures for `Cc1cc(CN2CCN(C(=O)OC(C)C)[C@@H](C)C2)c(C)c(Nc2nnc([C@@H]3CCOC3)o2)c1` [Example 76, isopropyl (2S)-4-[[2,5-dimethyl-3-[[5-[(3R)-tetrahydrofuran-3-yl]-1,3,4-oxadiazol-2-yl]amino]phenyl]methyl]-2-methyl-piperazine-1-carboxylate] were 25.6 nM, 112 nM and 60.5 nM.
On to `Cc1cc(CN2CCN(C(=O)C3CCC(F)(F)C3)[C@@H](C)C2)c(C)c(Nc2nnc(CC#N)o2)c1` (stereo partly drawn) [Example 17, 2-[5-[3-[[(3S)-4-(3,3-difluorocyclopentanecarbonyl)-3-methyl-piperazin-1-yl]methyl]-2,5-dimethyl-anilino]-1,3,4-oxadiazol-2-yl]acetonitrile], for which the EC50 in test [1] was determined as 54.5 nM; in test [2], 131 nM; in test [3], 230 nM.
Taken in the same sequence, the figures for `CCC(F)(F)C(=O)N1CCN(Cc2cc(C)cc(Nc3nnc([C@@H](C)O)o3)c2C)C[C@@H]1C` [Example 21, 2,2-difluoro-1-[(2S)-4-[[3-[[5-[(1R)-1-hydroxyethyl]-1,3,4-oxadiazol-2-yl]amino]-2,5-dimethyl-phenyl]methyl]-2-methyl-piperazin-1-yl]butan-1-one] were 71.7 nM, 251 nM and 180 nM.
Taken in the same sequence, the figures for `Cc1cc(CN2CCN(C(=O)C3CCC3)[C@@H](C)C2)c(C)c(Nc2nnc(C)o2)c1` [Example 14, cyclobutyl-[(2S)-4-[[2,5-dimethyl-3-[(5-methyl-1,3,4-oxadiazol-2-yl)amino]phenyl]methyl]-2-methyl-piperazin-1-yl]methanone] were 61.1 nM, 372 nM and 185 nM.

The values above are taken from patent US10934282B2, “Heteroaromatic modulators of the retinoid-related orphan receptor gamma” (LEO PHARMA A/S, priority 2016, dated 2021).
